The subject of data set [1] is K. pneumoniae ARC4486. Put plainly: MIC, broth microdilution (CLSI). In kind it is cell-based. The settings on record: Klebsiella pneumoniae, combination at 1:2 ratio cefpodoxime:ETX1317, MIC of CPD. Here is the method: (§1) MICs were determined utilizing a 1:2 ratio of cefpodoxime:ETX1317. […] The isolates utilized in the present study (Table 1) were broadly insensitive to CPD, presumably due to the presence of ESBLs and carbapenemases expressed in these strains. The addition of ETX1317 restored CPD activity to ≤1 μg/mL across all the tested isolates.
(§2) The MIC of each isolate was determined using the broth microdilution method following CLSI guidelines of document M07-A7 (CLSI M07-A7).

Data set [2] has as its system E. coli ARC4419. Put plainly: MIC, broth microdilution (CLSI). In kind it is cell-based. The settings on record: Escherichia coli, combination at 1:2 ratio cefpodoxime:ETX1317, MIC of CPD. Here is the method:
as §1, §2
A general note: In broth dilution the organism is exposed to a series of concentrations in liquid medium.

Data set [3] concerns E. coli ARC2687. In words: MIC, broth microdilution (CLSI). In kind it is cell-based. Here is the method:
as §1, §2

Data set [4] deals with K. pneumoniae ARC4420. Put plainly: MIC, broth microdilution (CLSI). The note with it: Klebsiella pneumoniae, combination at 1:2 ratio cefpodoxime:ETX1317, MIC of CPD. The format is cell-based. Here is the method: as §1, §2
Data set [5] deals with E. coli NMC101. In words: MIC, broth microdilution (CLSI). In kind it is cell-based. The settings on record: Escherichia coli, combination at 1:2 ratio cefpodoxime:ETX1317, MIC of CPD. Here is the method:
as §1, §2

Data set [6] relates to K. pneumoniae ARC5118. Put plainly: MIC, broth microdilution (CLSI). The format is cell-based. Here is the method: as §1, §2
The test system of data set [7] is K. pneumoniae ARC4488. In words: MIC, broth microdilution (CLSI). In kind it is cell-based. Here is the method: as §1, §2
Data set [8] has as its system E. coli strain (ATCC 25922). Put plainly: MIC. In kind it is cell-based. The note with it: Escherichia coli, ATCC25922; susceptible strain.
Description: All in vivo efficacy studies were supported with PK of ETX1317 and CPD following oral administration of ETX0282 and CPDP. For the purposes of understanding the exposure-PD response relationship, total systemic concentrations of ETX1317 and cefpodoxime were normalized to unbound drug levels after accounting for protein binding with percent unbound estimates of 93% and 66%, respectively, in mouse plasma (Table S2). An in vivo dose range study with CPDP administered alone against a susceptible E. coli strain (ATCC 25922, CPD MIC = 0.5 μg/mL) was completed initially in a murine neutropenic thigh model to confirm its PK/PD target. In this study a 50 mg/kg oral dose of CPDP administered q6h was consistent with achieving 1–log kill over 24 h. […] Oral exposure was generally dose proportional to 50 mg/kg; however, it became less than dose proportional at ≥200 mg/kg.
as §2

Data set [9] is described as follows: Plasma protein binding. The format is in vitro ADME, mouse. The note with it: mouse plasma; read-out: percent unbound. Here is the method: Plasma protein binding was determined by rapid equilibrium dialysis. Plasma was freshly prepared from blood samples drawn in to EDTA (anticoagulant) containing tubes. Plasma was prepared using a table-top centrifuge and spun per instruction of the tube manufacturer and specifications (Beckton, Dickinson and Company, Franklin Lakes, NJ) and placed on ice prior to use.
Pooled plasma samples were centrifuged at 2000 rpm (approximately 1400g) for 15 min at 4 °C to remove debris. Approximately 90% of the clear supernatant fraction was transferred to a separate tube. Samples (500 μL) were then spiked with a 100× stock solution 100 μM, 0.5 mM, and 10 mM ETX1317 in DMSO respectively for 1, 5, and 100 μM final concentrations, transferred to the top of the filter chambers, and allowed to equilibrate for 15 min prior to centrifugation. The filtrate tubes were centrifuged at 14000g for 15 min at 4 °C. Next, 50 μL of the filtrate was precipitated with 300 μL of acetonitrile containing 250 ng/mL of carbutamide as the internal standard and the samples were analyzed by LC/MS/MS analysis.

Data set [10] concerns Enterobacteriaceae isolates. Put plainly: Hollow-fiber and chemostat models, strains combined. In kind it is cell-based, E. coli, K. pneumoniae. The settings on record: infused alone, both models. Here is the method:
The PK/PD driver of ETX1317 was assessed in the presence of CPD in both hollow-fiber[28]−[31] and chemostat[32]in vitro infection model systems. In all cases, CPD was administered q12h via a 2 h infusion and eliminated with a 2 h half-life, with the concentration of drug exceeding the MIC (the MIC of CPD in the presence of ETX1317 at a 1:2 ratio) for 50% of the dosing interval for each strain. Representative Emax plots are shown graphically for Escherichia coli ARC2687 in the hollow-fiber model and Klebsiella pneumoniae ARC4420 in the chemostat system (Figure 2). […] This could partially be attributed to the distribution of the concentration ranges utilized for the hollow-fiber infection model (HFIM) where most of the data scatter occurred in the efficacious dose range for lower MIC strains. It is important to note that initial evaluation of K. pneumoniae ARC4420 and ARC5118 was completed in the HFIM but rapid degradation of CPD, presumably through accumulation of β-lactamases in the extra-capillary space of the cartridge precluded a reliable assessment of the PK/PD driver with these strains in this model.[32] […] In both the HFIM and chemostat models the optimum critical threshold of ETX1317 was established through iterative Emax fitting of a range of ETX1317 concentrations from 0.5× to 2× the CPD:ETX1317 MIC value. In the HFIM, %Time > ETX1317 CT of 2× MIC provided the highest correlation to observed activity which appeared to be independent to the apparent intrinsic activity of ETX1317 (as reflected by ETX1317 MICBLI of K. pneumoniae ARC4486 vs ARC4488). […] In both models CPD infused alone mimicked vehicle control as expected with similar growth of +2 to 4 log10 CFU/mL.
PK/PD-derived exposure targets for BLIs have utilized various approaches for clinical dose setting. The use of a singular critical threshold value independent of MIC has been used for recent BL/BLI combinations such as ceftazidime/avibactam[34] aztreonam/avibactam,[35] but this has been problematic to correlate activity across a broad range of MICs. More recent work with ceftolozane/tazobactam[36] and other BLI combinations[37],[38] considers a critical threshold value that varies proportionally to the MIC value. […] Convergence of the data to a threshold value related to MIC simplifies dose setting and, in this case, appears to be consistent across a broad range of susceptibility (0.125–1 μg/mL).
Dose range and dose fractionation were performed in hollow-fiber infection model (HFIM) and chemostat (one-compartment) in vitro infection model. […] CPD concentrations were targeted to achieve exposure of ∼50%Time > MIC determined in the presence of ETX1317. […] Bacterial burden (CFU/mL) was serially assessed by sampling (500 μL) from the extra-capillary space of the HFIM cartridge at predetermined time points. […]

For data set [11] the following is noted: cited from earlier work.
Data set [12] relates to E. coli ARC4419. Put plainly: Murine neutropenic thigh infection model. The format is in vivo, mouse. The note with it: 600 mg/kg s.c./q6h. Here is the method: (§3) To further understand whether this in vitro activity translated to in vivo efficacy, an additional neutropenic thigh study was conducted in mice with increasing doses of ETX0282 alone vs E. coli NMC101 (ETX1317 MICBLI = 1 μg/mL) and ARC4419 (ETX1317 MICBLI = 0.25 μg/mL). […] Despite the significant exposure of ETX1317, a 200 mg/kg q6h dose of ETX0282 alone was ineffective for both strains (Table 6).
(§4) In vivo neutropenic infection models in the mouse were conducted as previously described.[48],[49] All procedures were performed to Entasis approved IACUC policies and guidelines as well as OLAW standards. Briefly, Female CD-1 mice (20–22 g, Charles River Laboratories) were acclimated for 5 days prior to start of study. Animals were housed 3 per cage with free access to food and water. Mice were rendered neutropenic via two doses of cyclophosphamide on days −4 and −1 with 150 mg/kg and 100 mg/kg delivered intraperitoneally in a dose volume of 10 mL/kg, respectively.[48]
(§5) Enterobacteriaceae isolates ARC2687, ARC4488, ARC5118, NMC101, and ARC4419 were prepared for infection from an overnight plate culture. A portion of the plate was resuspended in sterile saline and adjusted to an OD of 0.1 at 625 nm. The adjusted bacterial suspension was further diluted to target an infecting inoculum of approximately 5.0 × 10^6–1.0 × 10^7 CFU/mouse. The actual inoculum size varied between 5.5 × 10^6–1.6 × 10^6 CFU/thigh and administered via intramuscular injection of (100 μL). Plate counts of the inoculum were performed to confirm inoculum concentration and treatment was initiated 2 h after bacterial challenge.
(§6) ETX0282 and CPDP were formulated in 0.5% HPMC/0.1% Tween 80 suspension. meropenem (utilized as a positive control) was solubilized in water for injection. All studies utilized a meropenem dosed at 600 mg/kg q6h subcutaneously as positive control against meropenem sensitive isolates (MIC ≤ 2 μg/mL) and as a negative control against meropenem resistant isolates. For dose arms utilizing a combination of ETX0282 and CPDP, both agents were reconstituted in the same vehicle. All dose concentrations were adjusted to deliver targeted mg/kg doses within a dose volume of 10 mL/kg. Formulation potency was verified by LC/MS/MS.
(§7) ETX0282 and CPDP were administered via q6h dose intervals in order to achieve targeted unbound exposures. At 24 h post initiation of therapy, animals were euthanized, tissue samples aseptically collected and homogenized. Bacterial colony enumeration of tissue homogenate was performed by serial dilution on TSA plates which were incubated overnight at 35 °C prior to colony (CFU) counting.

Data set [13] relates to E. coli NMC101. Put plainly: Murine neutropenic thigh infection model. In kind it is in vivo, mouse. The settings on record: 600 mg/kg s.c./q6h. Here is the method:
as §3, §4, §5, §6, §7

Data set [14] concerns E. coli ARC2687. Put plainly: Murine neutropenic thigh infection model. The format is in vivo, mouse. Here is the method: as §4, §5, §6, §7
Data set [15] deals with K. pneumoniae ARC5118. In words: Murine neutropenic thigh infection model. In kind it is in vivo, mouse. Here is the method: as §4, §5, §6, §7
Setting [16] is: q6h, 24 h, cidal = ≥1 log10 CFU/g reduction.

Structures are written as SMILES. ≈ marks a conversion by molar mass, not a printed value.

The term MIC denotes the lowest concentration found to suppress growth.

Turning to `COCC1=C(C(=O)O)N2C(=O)[C@@H](NC(=O)/C(=N\OC)c3csc(N)n3)[C@H]2SC1` [cefpodoxime], the minimum inhibitory concentration (MIC) in [1] is above 64 µg/mL; in [2], 64 µg/mL; in [3] (Escherichia coli, ARC2687, combination at 1:2 ratio cefpodoxime:ETX1317, MIC of CPD), above 64 µg/mL; in data set [4], above 64 µg/mL; in data set [5], above 64 µg/mL; in [6] (Klebsiella pneumoniae, ARC5118, combination at 1:2 ratio cefpodoxime:ETX1317, MIC of CPD), above 64 µg/mL. In addition, the MIC is above 64 µg/mL in data set [7] (Klebsiella pneumoniae, ARC4488, combination at 1:2 ratio cefpodoxime:ETX1317, MIC of CPD) and 0.5 µg/mL (≈ 1.17 µM) in data set [8]. For the same molecule, in data set [9], the fraction unbound at 15 min is 0.66. Further, the growth result in data set [10] is recorded as “+2 to 4 log10 CFU/mL”. For the same molecule, the “% of dosing interval with mean unbound concentrations exceeding at least 0.5 μg/mL” value in data set [11] (400 mg q12h (800 mg/day)) is listed as “greater than 50%”. In addition, the half-life in humans in [11] (humans) is reported as 2 h. Besides, the F% result in data set [11] (oral proxetil ester prodrug, top dose 400 mg q12h) is “≈ 50%”.
As to `C[C@@H](O)[C@H]1C(=O)N2C(C(=O)O)=C(S[C@@H]3CN[C@H](C(=O)N(C)C)C3)[C@H](C)[C@H]12` [meropenem], the values for the susceptibility to meropenem result in data set [3] (ESBL producer), in data set [6] (KPC-producing isolate) and in data set [7] (ESBL producer) were “maintain susceptibility to meropenem”, “resistant to meropenem” and “maintain susceptibility to meropenem”, respectively. Moreover, the “log10 CFU/g thigh change 24 h post therapy initiation” value in data set [12] is recorded as “–2.19 log10 CFU/g”; in data set [13] it was “–1.36 log10 CFU/g”; in data set [14] (600 mg/kg s.c./q6h), “–1.46 log10 CFU/g”; in [15] (600 mg/kg s.c./q6h), “+2.04 log10 CFU/g”. The results for the “in vivo efficacy in words” value in data set [14] (setting [16]) and in [15] (setting [16]) were “cidal activity” and “not against K. pneumoniae ARC5118”, respectively.

The record behind these values is publication PMC7297445, “Pharmacokinetic/Pharmacodynamic Determination and Preclinical Pharmacokinetics of the β-Lactamase Inhibitor ETX1317 and Its Orally Available Prodrug ETX0282” (ACS Infectious Diseases, 2020).
